Reference: patent US10259847B2, “Beta-hairpin peptidomimetics” (POLYPHOR AG, priority 2014, dated 2019)
Where two headings read alike, the source gives them in different places. Where a SMILES comes first, the peptide text is derived from it. Bridges are numbered along the chain shown (N, C = ends). [ ]: non-standard residue; d: D form. Tle = CC(C)(C)[C@H](N)C(=O)O; dDab = NCC[C@@H](N)C(=O)O; Orn = NCCC[C@H](N)C(=O)O; Dab = NCC[C@H](N)C(=O)O; dAze = O=C(O)[C@H]1CCN1; Dap = NC[C@H](N)C(=O)O

What was measured:
Format in all cases: cell-based
[1] = test system: human red blood cells (hRBC); test: Hemolysis of human red blood cells
Method: (§1) Stock solutions were kept at +4° C., light protected.
Percent hemolysis was calculated as follows: (OD540peptide/OD540H2O)×100%.

[2] = test system: Klebsiella pneumoniae ATCC 13883
Method: as §1
(§2) The selective antimicrobial activities of the peptides were determined in 96-well plates (Greiner, polystyrene) by the standard NCCLS broth microdilution method (National Committee for Clinical Laboratory Standards 1993. Methods for dilution antimicrobial susceptibility tests for bacteria that grow aerobically, 3rd ed. Approved standard M7-A6; National Committee for Clinical laboratory standards, Wayne, Pa.) with slight modifications. Inocula of the microorganisms were diluted into Mueller-Hinton II (MH, cation adjusted) broth and compared with a 0.5 McFarland standard to give appr. 10^6 colony forming units (CFU)/mL. Aliquots (90 μl) of inoculate were added to 10 μl of MH broth+P-80 (Polysorbate 80, 0.002% final concentration) containing the peptide in serial two-fold dilutions. The following microorganisms were used to determine antibiotic selectivity of the peptides: Escherichia coli ATCC 25922, Klebsiella pneumoniae ATCC 13883 and Acinetobacter baumannii DSM 30008.

[3] = test system: Acinetobacter baumannii DSM 30008
Method: as §1, §2

[4] = test system: Escherichia coli ATCC 25922
Method: as §1, §2

[5] = Mueller-Hinton broth II, 0.002% P-80, 18-20 hours at 35° C.

Structure (SMILES)	Hemolysis at 100 μg/mL ([1]; red cells of human, 1 h, 100) [%]	Klebsiella pneumoniae ATCC 13883 MIC ([2]; ATCC 13883) [mg/L]	Acinetobacter baumannii DSM 30008 MIC ([3]; DSM 30008) [mg/L]	Escherichia coli ATCC 25922 MIC ([4]; ATCC 25922) [mg/L]	Hemolysis at 100 μg/mL ([1]; 100 μg/mL, 20% hRBC (v/v), 1 h at 37° C.) [%]	Klebsiella pneumoniae ATCC 13883 MIC [2, 5] [mg/L]	Acinetobacter baumannii DSM 30008 MIC [3, 5] [mg/L]	Escherichia coli ATCC 25922 MIC [4, 5] [mg/L]
CC(C)C[C@@H]1NC(=O)[C@@H]2CCCN2C(=O)[C@H]2CCCN2C(=O)[C@H](CO)NC(=O)[C@@H]2CCCCNC(=O)C[C@H](NC1=O)C(=O)N[C@@H](Cc1ccc(O)cc1)C(=O)N[C@@H](CCN)C(=O)N[C@@H](CCCN)C(=O)N[C@H](CCN)C(=O)N[C@@H](CCN)C(=O)N[C@@H](Cc1c[nH]c3ccccc13)C(=O)N[C@@H](CCN)C(=O)N[C@@H](C(C)(C)C)C(=O)N2 [Example 24, cyclo(-Leu-Asp-Tyr-Dab-Orn-^DDab-Dab-Trp-Dab-tBuGly-Lys-Ser-^DPro-Pro-)] (HELM PEPTIDE1{L.D.Y.[Dab].[Orn].[NCC[C@@H](N[*:1])C(=O)[*:2]].[Dab].W.[Dab].[CC(C)(C)[C@H](N[*:1])C(=O)[*:2]].K.S.[dP].P}$PEPTIDE1,PEPTIDE1,2:R3-11:R3|PEPTIDE1,PEPTIDE1,1:R1-14:R2$$$V2.0)	0.5	0.5	1	0.5				
CC(C)C[C@@H]1NC(=O)[C@H](CCN)NC(=O)[C@H]2CCCN2C(=O)[C@H](C(C)C)NC(=O)[C@@H]2CSSC[C@H](NC1=O)C(=O)N[C@@H](Cc1ccc(O)cc1)C(=O)N[C@@H](C)C(=O)N[C@@H](CCCN)C(=O)N[C@H](CCN)C(=O)N[C@@H](CCN)C(=O)N[C@@H](Cc1c[nH]c3ccccc13)C(=O)N[C@@H](C)C(=O)N[C@@H](C(C)C)C(=O)N2 [Example 5, cyclo(-Leu-Cys-Tyr-Ala-Orn-^DDab-Dab-Trp-Ala-Val-Cys-Val-^DPro-Dab-)] (HELM PEPTIDE1{A.[Orn].[NCC[C@@H](N[*:1])C(=O)[*:2]].[Dab].W.A.V.C.V.[dP].[Dab].L.C.Y}$PEPTIDE1,PEPTIDE1,8:R3-13:R3|PEPTIDE1,PEPTIDE1,1:R1-14:R2$$$V2.0)	3	2	1	2				
CC(C)C[C@@H]1NC(=O)[C@@H]2CCCN2C(=O)[C@H]2CCCN2C(=O)[C@H](CO)NC(=O)[C@@H]2CC(=O)NC[C@H](NC1=O)C(=O)N[C@@H](Cc1ccc(O)cc1)C(=O)N[C@@H](CCN)C(=O)N[C@@H](CCCN)C(=O)N[C@H](CCN)C(=O)N[C@@H](CCN)C(=O)N[C@@H](Cc1c[nH]c3ccccc13)C(=O)N[C@@H](CCN)C(=O)N[C@@H](C(C)(C)C)C(=O)N2 [Example 36, cyclo(-Leu-Dap-Tyr-Dab-Orn-^DDab-Dab-Trp-Dab-tBuGly-Asp-Ser-^DPro-Pro-)] (cyclo(L[Dap]Y[Dab][Orn][dDab][Dab]W[Dab][Tle]DS[dP]P); lactam 2-11)	4.5	0.125	1.5	0.5				
CC(C)C[C@@H]1NC(=O)[C@@H]2CCCN2C(=O)[C@H]2CCCN2C(=O)[C@H](CO)NC(=O)[C@@H]2CCNC(=O)C[C@H](NC1=O)C(=O)N[C@@H](Cc1ccc(O)cc1)C(=O)N[C@@H](CCN)C(=O)N[C@@H](CCCN)C(=O)N[C@@H](CCN)C(=O)N[C@@H](CCN)C(=O)N[C@@H](Cc1c[nH]c3ccccc13)C(=O)N[C@@H](CCN)C(=O)N[C@@H](C(C)(C)C)C(=O)N2 [Example 23, cyclo(-Leu-Asp-Tyr-Dab-Orn-Dab-Dab-Trp-Dab-tBuGly-Dab-Ser-^DPro-Pro-)] (HELM PEPTIDE1{L.D.Y.[Dab].[Orn].[Dab].[Dab].W.[Dab].[CC(C)(C)[C@H](N[*:1])C(=O)[*:2]].[Dab].S.[dP].P}$PEPTIDE1,PEPTIDE1,2:R3-11:R3|PEPTIDE1,PEPTIDE1,1:R1-14:R2$$$V2.0)	0	0.5	1	1				
CC(C)[C@@H]1NC(=O)[C@@H]2CCCN2C(=O)[C@H]2CCN2C(=O)[C@H]([C@@H](C)O)NC(=O)[C@H](CO)NC(=O)[C@H](C(C)(C)C)NC(=O)[C@H](CCN)NC(=O)[C@H](Cc2c[nH]c3ccccc23)NC(=O)[C@H](CCN)NC(=O)[C@@H](CCN)NC(=O)[C@H](CN)NC(=O)[C@H](CCN)NC(=O)[C@H](Cc2ccc(O)cc2)NC(=O)[C@H](CN)NC1=O [Example 41, cyclo(-Val-Dap-Tyr-Dab-Dap-^DDab-Dab-Trp-Dab-tBuGly-Ser-Thr-^DAzt-Pro-)] (cyclo([Dab][Dap][dDab][Dab]W[Dab][Tle]ST[dAze]PV[Dap]Y))	1	0.25	1	0.5				
CC(C)[C@@H]1NC(=O)[C@@H]2CCCN2C(=O)[C@H]2CCCN2C(=O)[C@H](CO)NC(=O)[C@H]2CSSC[C@@H](NC1=O)C(=O)N[C@@H](Cc1ccc(O)cc1)C(=O)N[C@@H](CCN)C(=O)N[C@@H](CN)C(=O)N[C@H](CCN)C(=O)N[C@@H](CCN)C(=O)N[C@@H](Cc1c[nH]c3ccccc13)C(=O)N[C@@H](CCN)C(=O)N[C@@H](C(C)(C)C)C(=O)N2 [Example 38, cyclo(-Val-^DCys-Tyr-Dab-Dap-^DDab-Dab-Trp-Dab-tBuGly-^DCys-Ser-^DPro-Pro-)] (cyclo(V[dC]Y[Dab][Dap][dDab][Dab]W[Dab][Tle][dC]S[dP]P); disulfide 2-11)					2	2	2	4
CC(C)[C@@H]1NC(=O)[C@@H]2CCCN2C(=O)[C@H]2CCCN2C(=O)[C@H](Cc2c[nH]cn2)NC(=O)[C@@H]2CC(=O)NCC[C@H](NC1=O)C(=O)N[C@@H](Cc1ccc(O)cc1)C(=O)N[C@@H](CCN)C(=O)N[C@@H]([C@@H](C)O)C(=O)N[C@@H](CCN)C(=O)N[C@@H](CCN)C(=O)N[C@@H](Cc1c[nH]c3ccccc13)C(=O)N[C@@H](CCN)C(=O)N[C@@H](C(C)(C)C)C(=O)N2 [Example 17, cyclo(-Val-Dab-Tyr-Dab-Thr-Dab-Dab-Trp-Dab-tBuGly-Asp-His-^DPro-Pro-)] (HELM PEPTIDE1{V.[Dab].Y.[Dab].T.[Dab].[Dab].W.[Dab].[CC(C)(C)[C@H](N[*:1])C(=O)[*:2]].D.H.[dP].P}$PEPTIDE1,PEPTIDE1,2:R3-11:R3|PEPTIDE1,PEPTIDE1,1:R1-14:R2$$$V2.0)	1	2	4	2				
CC(C)C[C@@H]1NC(=O)[C@@H]2CCCN2C(=O)[C@H]2CCCN2C(=O)[C@H](CO)NC(=O)[C@@H]2CCC(=O)NC[C@H](NC1=O)C(=O)N[C@@H](Cc1ccc(O)cc1)C(=O)N[C@@H](CCN)C(=O)N[C@@H](CCCN)C(=O)N[C@@H](CCN)C(=O)N[C@@H](CCN)C(=O)N[C@@H](Cc1c[nH]c3ccccc13)C(=O)N[C@@H](CCN)C(=O)N[C@@H](C(C)(C)C)C(=O)N2 [Example 26, cyclo(-Leu-Dap-Tyr-Dab-Orn-Dab-Dab-Trp-Dab-tBuGly-Glu-Ser-^DPro-Pro-)] (HELM PEPTIDE1{L.[O=C([C@H](CN[*:3])N[*:1])[*:2]].Y.[Dab].[Orn].[Dab].[Dab].W.[Dab].[CC(C)(C)[C@H](N[*:1])C(=O)[*:2]].E.S.[dP].P}$PEPTIDE1,PEPTIDE1,2:R3-11:R3|PEPTIDE1,PEPTIDE1,1:R1-14:R2$$$V2.0)	0	1	4	4				
CC(C)[C@@H]1NC(=O)[C@@H]2CCCN2C(=O)[C@H]2CCCN2C(=O)[C@H](CO)NC(=O)[C@@H]2CC(=O)NCC[C@H](NC1=O)C(=O)N[C@@H](Cc1ccc(O)cc1)C(=O)N[C@@H](CCN)C(=O)N[C@@H](CCN)C(=O)N[C@H](CCN)C(=O)N[C@@H](CCN)C(=O)N[C@@H](Cc1c[nH]c3ccccc13)C(=O)N[C@@H](CCN)C(=O)N[C@@H](C(C)(C)C)C(=O)N2 [Example 28] (HELM PEPTIDE1{V.[Dab].Y.[Dab].[Dab].[NCC[C@@H](N[*:1])C(=O)[*:2]].[Dab].W.[Dab].[CC(C)(C)[C@H](N[*:1])C(=O)[*:2]].D.S.[dP].P}$PEPTIDE1,PEPTIDE1,2:R3-11:R3|PEPTIDE1,PEPTIDE1,1:R1-14:R2$$$V2.0)	1	0.5	2	0.5				
CC[C@H](C)[C@@H]1NC(=O)[C@@H]2CCCN2C(=O)[C@H]2CCCN2C(=O)[C@H](CO)NC(=O)[C@@H]2CSSC[C@H](NC1=O)C(=O)N[C@@H](Cc1ccc(O)cc1)C(=O)N[C@@H](CCN)C(=O)N[C@@H](CCCN)C(=O)N[C@H](CCN)C(=O)N[C@@H](CCN)C(=O)N[C@@H](Cc1c[nH]c3ccccc13)C(=O)N[C@@H](CCN)C(=O)N[C@@H](C(C)(C)C)C(=O)N2 [Example 10, cyclo(-Ile-Cys-Tyr-Dab-Orn-^DDab-Dab-Trp-Dab-tBuGly-Cys-Ser-^DPro-Pro-)] (HELM PEPTIDE1{I.C.Y.[Dab].[Orn].[NCC[C@@H](N[*:1])C(=O)[*:2]].[Dab].W.[Dab].[CC(C)(C)[C@H](N[*:1])C(=O)[*:2]].C.S.[dP].P}$PEPTIDE1,PEPTIDE1,2:R3-11:R3|PEPTIDE1,PEPTIDE1,1:R1-14:R2$$$V2.0)	1	0.25	1	1				
